These results are taken from patent US9642819B2, “Low dosage serotonin 5-HT2A receptor agonist to suppress inflammation” (BOARD OF SUPERVISORS OF LOUISIANA STATE UNIVERSITY AND …, priority 2008, dated 2017).

In assay [1] the test system is ICAM-1, VCAM-1, and IL-6 gene expression. Put plainly: TNF-α induced proinflammatory gene expression (ICAM-1, VCAM-1, IL-6) by Q-RT-PCR in RASM cells. Format: cell-based, rat. As to conditions: for effect of receptor antagonist on the inhibitory effects of (R)-DOI: antagonist 100 nM 30 minutes prior to 1 nM (R)-DOI, then TNF-α. How it is done:
(§1) RASM cells and treatment. Rat aortic smooth muscle (RASM) cells were isolated from adult 180 g male Sprague-Dawley rats and provided by the Cell and Molecular Core Facility in the Department of Pharmacology at LSUHSC-NO. Isolated RASM cells were grown in M-199 media containing 10% fetal bovine serum (Gibco), 100 units/mL penicillin, and 100 µg/mL streptomycin, and incubated at 37° C. in 5% CO2. Cells for all assays were used between passages 3 and 5. Prior to treatments, cells were grown in M-199 media with 10% fetal bovine serum (FBS) until 30-50% confluent. For most assays, cells were treated with (R)-DOI, or other drugs as indicated, at specific concentrations for 24 hours, followed by TNF-α (10 ng/ml) and (R)-DOI at the same pretreatment concentrations in fresh M-199 media. After another 24 hours, the cells were scraped, pelleted, and processed for RNA.
(§2) RNA isolation and Quantitative Realtime-PCR. RNA was extracted from cells using Illustra RNAspin Mini kits from GE Healthcare Life Sciences (Piscataway, N.J.) following protocols supplied by the manufacturer. First strand cDNA was generated using the ImProm-II cDNA synthesis kit (Promega) following the manufacturers protocols. Q-RT-PCR was performed using the ProbeLibrary system from Roche (Indianapolis, Ind.) in combination with the HotStart-IT probe qpcr master mix from USB Biological (Cleveland, Ohio) following manufactures protocols.
(§3) Primers were synthesized by IDT (Coralville, Iowa). ProbeLibrary probes from Roche were: U3, U74, U13, U106, U79 for 5-HT2AR, ICAM-1, VCAM-1, IL-6, and cyclophillin B, respectively. Quantitative determination of gene expression levels using a 2-step cycling protocol was performed on a MyIQ-5 Cycler (Bio-Rad, Hercules Calif.). Relative gene expression levels were calculated using the 2^[−ΔΔC(T)] method. Levels of all targets from the test samples were normalized to rat cyclophillin B expression.
(§4) To examine the effects of 5-HT2A receptor activation on TNF-α mediated proinflammatory gene expression, RASM cells were pretreated with (R)-DOI, a selective 5-HT2 receptor agonist, as described above. Dose-response curves were determined for the effects on ICAM-1, VCAM-1, and IL-6 gene expression for twelve different concentrations of (R)-DOI ranging from 0.1 pM to 100 nM, with each experiment repeated in triplicate. In FIGS. 1A-1C, the Y-axis represents a percent of TNF-α for the dose of (R)-DOI indicated on the X-axis.

Assay [2] concerns ICAM-1 gene expression. Put plainly: TNF-α induced ICAM-1 gene expression in primary rat aortic smooth muscle cells. Format: cell-based. As to conditions: for block of TNF-α induced ICAM1 gene expression at 1 nM: VCAM1 and IL6 identical. On the procedure:
as §1, §2, §3, §4

For assay [3], the system named is ICAM-1 gene expression. Kind of assay: TNF-α induced ICAM-1 gene expression in rat C6 glioma cells. Format: cell-based. As to conditions: 1 nM and 50 nM prior to TNF-α. How it is done:
Experiments were conducted to analyze for the effect of 5-HT2A receptor activation on proinflammatory marker expression in other cell types. Human neuroblastoma cells (SHSY5Y) and rat glioma cells (C6) can be obtained from the American Type Culture Collection (Manassas, Va.), but were provided Purdue University. The cells were grown in DMEM+10% FBS. DMEM was made and provided by the Cell and Molecular Core of the Mentoring in Cardiovascular Biology COBRE center at LSUHSC-NO. FBS was purchased from Invitrogen (Carlsbad, Calif.). Primary rat aortic endothelial cells were prepared fresh and provided by the Cell and Molecular Core of the Mentoring in Cardiovascular Biology COBRE center at LSUHSC-NO. Cells were tested at passages 3-4. Cells were grown in endothelial cell growth medium (Cell Applications, Inc.). Primary rat bronchoaveolar macrophage cells were obtained by lung lavage from rats and used at day 3 or 4 post plating in DMEM+10% FBS.
All treatments with 5-HT2A receptor agonists occurred 1 hour prior to the addition of TNF-alpha (10 ng/ml) or LPS (100 ng or 1 mg) depending on the experiment. All RNA isolations, cDNA synthesis, QPCR gene expression assays examining ICAM1, VCAM1, and IL6, and data analysis were performed as described above in Example 1, except the primers were different for the human cell experiment. […]

Assay [4] deals with nitrite accumulation in C6 glioma cells. To be noted: cocktail of TNF-α, read-out: IC50 for partial block of LPS and cytokine stimulated nitrite accumulation; cited from earlier work.
Assay [5] concerns α1-adrenergic receptors. As to conditions: cited from earlier work.
Assay [6] deals with 5-HT2A receptors (Homo sapiens, UniProt P28223). To be noted: cited from earlier work.
The target of assay [7] is histamine H1 receptors (Homo sapiens, UniProt P35367). To be noted: cited from earlier work.
The subject of assay [8] is nuclear translocation of p65. Put plainly: Nuclear translocation of NF-κB subunit p65 in RASM cells. Format: cell-based, rat. As to conditions: pretreatment of the 1 hour time point. How it is done: Nuclear Translocation of p65. RASM cells were grown in M-199 medium+10% FBS until 50% confluent in 8 well chamber slides. Cells were treated with 1 nM (R)-DOI for various times as indicated, and TNF-α (10 ng/ml; tumor necrosis factor alpha) added. Thirty minutes after TNF-α treatment, cells were fixed and processed with rabbit anti p65 primary and Alexafluor 488-conjugated goat secondary antibodies as described in Zerfaoui et al. (2008) (Zerfaoui et al., 2008). Fluorescent signal was visualized on a Leica DMRA2 fluorescent microscope.
Both ICAM-1 and VCAM-1 gene transcription during inflammatory processes is regulated by the transcription factor NF-κB (Collins et al., 1995). During this process, NF-κB must be activated, and then translocated from the cytoplasm to the nucleus, where it promotes gene transcription. To investigate whether 5-HT2A receptor stimulated inhibition of NF-κB activation and translocation might be a possible mechanism for blockade of proinflammatory gene expression changes, a series of immunohistochemical experiments were conducted examining p65 translocation in RASM cells. TNF-α treatment for 30 minutes caused the expected dramatic shift in localization of the p65 subunit of NF-κB from the cytoplasm to the nucleus (FIG. 7A). […]

Assay [9] relates to Nitric Oxide Synthetase (NOS) activity. Put plainly: NOS activity: nitrite levels in culture medium of RASM cells after TNF-α. Format: cell-based, rat. As to conditions: 100 nM prior to 1 nM (R)-DOI. How it is done: Nitric Oxide Synthetase (NOS) Activity. NOS activity was determined by detection of nitrite levels in the cell culture medium following (R)-DOI/TNF-α treatments utilizing the Nitrate Detection kit from Assay Designs (Ann Arbor, Mich.) following the manufacturers protocols. Absorbances were detected at 539 nm on a […] SpectraMax M2 plate reader.
A key participant in inflammatory processes is NOS activity (Guzik et al., 2003). NOS activity can regulate NF-kB activation (Ckless et al., 2007), and cytokine pathway-activated NF-kB can transcriptionally regulate iNOS gene expression (Guo et al., 2007). To examine the effects of 5-HT2A receptor activation on this component of inflammatory mechanisms, primary RASM cells were used to examine the ability of 1 nM (R)-DOI to block TNF-α mediated increases in nitrite levels.
As an indicator of NOS activity, nitrite levels were measured in the cell culture media after treatments and are shown in FIG. 6 as % control. […] Pretreatment with 1 nM (R)-DOI for 24 hours blocked TNF-α mediated increases in nitrite accumulation (DOI+T).

The term IC50 denotes the concentration that gives 50% inhibition.

Entries after “also recorded” stand apart in the source; their conditions may differ.

Sequence of 5-HT2A receptors (P28223 whole entry): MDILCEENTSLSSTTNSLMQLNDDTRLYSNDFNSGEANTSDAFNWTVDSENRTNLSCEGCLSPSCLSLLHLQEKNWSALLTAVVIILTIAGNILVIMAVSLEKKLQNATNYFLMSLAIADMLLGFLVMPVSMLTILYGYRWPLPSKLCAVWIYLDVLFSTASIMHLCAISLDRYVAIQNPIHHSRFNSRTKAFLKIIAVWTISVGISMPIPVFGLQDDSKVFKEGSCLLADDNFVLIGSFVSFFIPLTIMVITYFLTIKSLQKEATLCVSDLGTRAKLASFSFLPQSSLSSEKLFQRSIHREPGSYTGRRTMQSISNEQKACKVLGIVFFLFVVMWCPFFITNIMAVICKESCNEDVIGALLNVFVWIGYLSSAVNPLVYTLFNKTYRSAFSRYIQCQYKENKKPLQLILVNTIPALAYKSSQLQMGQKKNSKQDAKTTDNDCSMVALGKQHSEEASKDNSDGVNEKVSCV
Sequence of histamine H1 receptors (P35367 whole entry): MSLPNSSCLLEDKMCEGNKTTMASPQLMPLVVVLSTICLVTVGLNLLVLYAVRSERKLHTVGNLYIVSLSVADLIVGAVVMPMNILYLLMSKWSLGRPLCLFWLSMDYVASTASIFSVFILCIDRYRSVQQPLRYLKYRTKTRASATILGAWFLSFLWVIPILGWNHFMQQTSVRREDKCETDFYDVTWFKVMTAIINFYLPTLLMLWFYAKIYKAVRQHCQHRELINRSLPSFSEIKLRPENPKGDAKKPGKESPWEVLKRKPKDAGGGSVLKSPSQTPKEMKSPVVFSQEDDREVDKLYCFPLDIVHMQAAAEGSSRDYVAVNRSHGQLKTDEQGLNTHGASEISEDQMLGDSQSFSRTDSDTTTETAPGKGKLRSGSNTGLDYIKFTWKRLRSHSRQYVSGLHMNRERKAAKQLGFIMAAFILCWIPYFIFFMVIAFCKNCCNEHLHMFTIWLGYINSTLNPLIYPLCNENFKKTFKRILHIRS

Regarding `Cc1cc(NC(=O)Nc2ccc3c(ccn3C)c2)sn1` [SB204741, N-(1-Methyl-1H-indolyl-5-yl)-N″-(3-methyl-5-isothiazolyl)urea, reference compound], the “effect of receptor antagonist on the inhibitory effects of (R)-DOI” value (shortened to “effect … on the inhibitory effects of (R)-DOI”) in assay [1] is listed as “did not block; also recorded: had no effect”.
As to `COc1cc(OC)c(C(=O)CCCCN2CCC3(CC2)NC(=O)NC3=O)cc1NS(=O)(=O)c1ccc(C(F)(F)F)cc1.Cl` [RS102221, reference compound], in assay [1] (hydrochloride), the “effect … on the inhibitory effects of (R)-DOI” value was “did not block; also recorded: had no effect”.
As to `CC1CC(C)N1C(=O)C1C=C2c3cccc4[nH]cc(c34)CC2N(C)C1` (stereo not drawn) [LA-SS-Az, (2′S,4′S)-(+)-9,10-Didehydro-6-methylergoline-8β-(trans-2,4-dimethylazetidide)], in assay [2] (1 nM pretreatment), the “induced gene expression blocked at 1 nM” value was “about 50%” and the “block of TNF-α induced ICAM1 gene expression at 1 nM” value is listed as “moderately effective”. Also, the “block of TNF-α induced ICAM1 gene expression at 50 nM” value in assay [2] (50 nM pretreatment) is on record as “effectively blocked”. Moreover, in [3], the “effect on ICAM-1 gene expression in rat glioma cells” value is given as “blocked”.
As for `COc1cc(CC(C)N)c(OC)cc1I` (racemic) [DOI, 1-(2,5-dimethoxy-4-iodophenyl)-2-aminopropane], the IC50 in [4] is 8 ± 3 nM.
On to `CCN(CC)C(=O)[C@@H]1C=C2c3cccc4[nH]cc(c34)C[C@H]2N(C)C1` [LSD, Lysergic acid diethylamide, reference compound], for which the “block of TNF-α induced ICAM1 gene expression at 1 nM” value in [2] (1 nM pretreatment) is “weak to moderate effects”. The “TNF-α effect blocked at 50 nM” value in [2] (50 nM pretreatment) is reported as “about 85%”.
With `CCCCCCCCCCCCCC(=O)O[C@@H]1[C@@H](C)[C@@]2(O)[C@@H](C=C(CO)C[C@]3(O)C(=O)C(C)=C[C@@H]23)[C@@H]2C(C)(C)[C@]12OC(C)=O` [PMA, Phorbol 12-myristate 13-acetate, reference compound], in assay [1] (100 nM prior to TNF-α, ICAM1, VCAM1, IL6), the “effect on TNF-α mediated expression in the absence of (R)-DOI” value is listed as “blocks the effects of TNF-α; also recorded: completely block”.
Consider `COc1cccc([C@H](O)C2CCN(CCc3ccc(F)cc3)CC2)c1OC` [M100907, R(+)-a-(2,3-dimeth-oxyphenyl)-1-[2-(4-fluorophenylethyl)]-4-pipeddine-methanol, reference compound], for which the results for the “effect … on the inhibitory effects of (R)-DOI” value in [1] and in assay [1] (listed as MDL100907) were “blocked the effects of (R)-DOI” and “completely blocked”, respectively.
Regarding `O=C(c1ccc(F)cc1)C1CCN(CCn2c(=O)[nH]c3ccccc3c2=O)CC1` [ketanserin], in [5], the “affinity for α1-adrenergic receptors” value was “high affinity”. Also, the “selectivity for 5-HT2A receptors over 5-HT2C receptors” value in assay [6] is ~20 fold. Besides, the “potency at blocking histamine H1 receptors” value in [7] is on record as “equipotent”.
`COc1ccc2c(c[n+](C)c3c4cc5c(cc4ccc23)OCO5)c1OC.[Cl-]` [chelerythrine, 1,2-Dimethoxy-12-methyl[1,3]benzodioxolo[5,6-c]phenanth ridinium chloride, reference compound]: in assay [2] (inhibitor 100 nM 30 minutes prior to 1 nM (R)-DOI, then TNF-α), the “effect of kinase inhibitor on (R)-DOI inhibition of TNF-α induced ICAM-1 expression” value is “blocked the effects of TNF-α-induced gene expression; also recorded: completely inhibited”. Also, the “effect of PKC inhibitor on (R)-DOI induced inhibition of p65 translocation” value in assay [8] is listed as “blocked”. Further, in assay [9], the “effect of PKC inhibitor on (R)-DOI block of nitrite accumulation” value was “completely inhibited”.
